# Source: patent US20130217640A1 (priority 2010, published 2013)
# Columns and labels:
# [1] = Water solubility of the analogs (saturated D2O solution, 1H NMR against DSS standard); type: physicochemical; settings: for water solubility (in words): D2O, Table 1
# Description: The method use involved stirring the sample in D2O for a period of 3 days, followed by filtration using a 0.2μ syringe filter. A measured volume of this saturated solution was diluted with a standard solution of DSS in D2O, and a ^1H NMR was taken. Integration of the DSS peaks compared to that of the analog would allow for the determination of its concentration, and thus the concentration of the saturated solution.
# [2] = Solution stability study at three pD's in phosphate buffered D2O, monitored by 1H NMR; type: physicochemical; settings: 23° C.; for change in 1H NMR spectra: after 167 days, pD 5.0, 6.0, 7.0 in D2O; for stability in solution (in words): pD 5.0, 6.0 and 7.0, phosphate buffered D2O, protected from light
# Description: 10 mL (11.07 g) D2O was placed in 3 separate vials with a stir bar and 0.002 moles (0.272 g) monobasic potassium phosphate (KH2PO4) was added to each. With the pD metered, NaOD/D2O was added drop-wise to each to adjust the pD's to 5.0, 6.0, and 7.0. Each of these solutions was gently boiled before use. Thus each vial contained […] phosphate buffered solution. […] The sample was sterilized by heating for 10 seconds, and after it had cooled down to ambient temperature (about 1 minute), 0.3 mL of one of the 0.2 mM 3 buffered solutions was added. The 0.6 mL sample was then placed in a sterilized NMR tube and the tube sealed and labeled. Each of the samples was stored at 23° C. protected from the light and monitored by ^1H NMR (64 scans for each sample) periodically.
# [3] = Pharmacokinetics after intravenous administration: pro-drug and released acetaminophen in plasma or blood; type: in vivo, male Sprague-Dawley rats; settings: for AUC of the pro-drug (in words) / half-life of the pro-drug (in words) / half-life: target dose 66.3 μmol/Kg, Table 4; for half-life: male, Sprague-Dawley, plasma, 66.3 umol/kg, read-out: half life (t1/2) of the pro-drug
compound,measurement,setting,value
"CC(=O)Nc1ccc(O[C@H]2O[C@H](CO)[C@@H](OC3O[C@H](CO)[C@@H](O)[C@H](O)[C@H]3O)[C@H](O)[C@@H]2O)cc1 (stereo partly drawn) [Compound 5, 1-(4-acetaminophenoxy) 2-epi maltose]",water solubility (in words),[1],highest solubility of all of the analogs
same,change in 1H NMR spectra,[2],no change
CC(=O)Nc1ccc(O[C@H]2O[C@H](COC(=O)CCC(=O)O)[C@@H](O)[C@H](O)[C@@H]2O)cc1 [Compound 20],AUC of the pro-drug (in words),"[3]; rat, intravenous",high AUC values
same,half-life of the pro-drug (in words),"[3]; rat, intravenous",relatively high half-lives
"CCCC(=O)OC[C@H]1O[C@H](Oc2ccc(NC(C)=O)cc2)C=C[C@@H]1O [Compound 16, 1-(4′-acetamidophenoxy)-6-O-butyryl-2,3-dideoxy 2,3-didehydro glucose]",water solubility (in words),[1],excellent solubility
"CC(=O)Nc1ccc(O[C@@H]2C=C[C@H](O)[C@@H](CO)O2)cc1 [Compound 1, N-(4-((2R,5S,6R)-5-hydroxy-6-(hydroxymethyl)-5,6-dihydro-2H-pyran-2-yloxy)phenyl)acetamide, reference compound]",stability in solution (in words),[2],least stable to all of the pD's
"CC(=O)Nc1ccc(O[C@H]2O[C@H](C)[C@@H](O)[C@H](O)[C@@H]2O)cc1 [Compound 23, 1-(4′-acetamidophenoxy)-6-deoxymannose]",AUC of the pro-drug (in words),"[3]; rat, intravenous",high AUC values
same,half-life of the pro-drug (in words),"[3]; rat, intravenous",relatively high half-lives
"CC(=O)Nc1ccc(O[C@H]2O[C@H](COC(=O)C(C)C)[C@@H](O)[C@H](O)[C@@H]2O)cc1 [Compound 19, 1-(4′-acetamidophenoxy)-6-O-isobutyrylmannose]",half-life,"[3]; rat, intravenous",< 1 h
same,AUC of the pro-drug (in words),"[3]; rat, intravenous",low values for AUC
"CC(=O)Nc1ccc(O)cc1 [acetaminophen, reference compound]",water solubility,"[1]; stirred in D2O for 3 days, filtered 0.2μ, 1H NMR integration vs DSS",13 mg/mL
same,change in 1H NMR spectra,[2],no change
CC(=O)Nc1ccc(O[C@H]2O[C@H](COC(C)=O)[C@@H](O)[C@H](O)[C@@H]2O)cc1 [Compound 15],half-life,"[3]; rat, intravenous",< 1 h
same,AUC of acetaminophen released by the pro-drug (in words),"[3]; rat, intravenous, Table 5",largest AUC value of all of the pro-drugs
same,AUC of the pro-drug (in words),"[3]; rat, intravenous",low values for AUC
same,"overall characteristics (water solubility, release of acetaminophen, AUC)",[3]; summary statement,"best combination of water solubility, quick release of the acetaminophen, and AUC"
"CC(=O)Nc1ccc(O[C@H]2O[C@H](CO)[C@@H](O)[C@H](O)[C@@H]2O)cc1 [Compound 8, N-(4-((2R,3S,4S,5S,6R)-3,4,5-trihydroxy-6-(hydroxymethyl)tetrahydro-2H-pyran-2-yloxy)phenyl)acetamide]",half-life,"[3]; rat, intravenous",< 1 h
same,half-life of the pro-drug (in words),"[3]; rat, intravenous",relatively high half-lives
same,change in 1H NMR spectra,[2],no change
"CC(=O)Nc1ccc(O[C@@H]2CC[C@H](O)[C@@H](CO)O2)cc1 [Compound 12, 1-(4′-acetamidophenoxy) 2,3-dideoxy glucose]",stability in solution (in words),[2],showing a lot of instability
"CCCC(=O)OC[C@H]1O[C@H](Oc2ccc(NC(C)=O)cc2)[C@@H](O)[C@@H](O)[C@@H]1O [Compound 18, 1-(4′-acetamidophenoxy)-6-O-butyrylmannose]",half-life,"[3]; rat, intravenous",< 1 h
same,AUC of the pro-drug (in words),"[3]; rat, intravenous",low values for AUC
